Laboratory results taken from patent publication US11655260B2, “Heterocyclic compounds as arginase inhibitors” (Guangdong Newopp Biopharmaceuticals Co., Ltd., priority 2017, dated 2023).
Where a name gives a salt, the structure may show the parent alone.

target: T1, recombinant human arginase 1 (Homo sapiens, UniProt P05089); assay: Arginase inhibitory activity test (urea detection), arginase 1; type: biochemical; conditions: recombinant human arginase 1, L-arginine substrate, 37° C. for 120 min, urea measurement; read-out: Arg 1 enzymatic potency
T1 sequence (P05089 1-322): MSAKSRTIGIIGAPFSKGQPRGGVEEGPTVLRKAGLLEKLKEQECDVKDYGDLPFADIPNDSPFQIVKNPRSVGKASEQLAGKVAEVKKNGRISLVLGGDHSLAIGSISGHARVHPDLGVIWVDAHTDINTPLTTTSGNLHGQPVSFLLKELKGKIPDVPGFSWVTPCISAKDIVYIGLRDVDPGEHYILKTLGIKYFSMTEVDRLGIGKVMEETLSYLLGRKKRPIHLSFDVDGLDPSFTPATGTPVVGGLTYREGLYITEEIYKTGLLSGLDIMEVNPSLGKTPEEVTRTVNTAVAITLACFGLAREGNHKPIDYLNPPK
Source text: Arginase Inhibitory Activity Test
Urea was used as the standard.

| Structure (SMILES) | IC50 [nM] |
| --- | --- |
| CNS(=O)(=O)N1C[C@H](CCCB(O)O)[C@](N)(C(=O)O)C1 (racemic) [Example 2, (rac)trans-3-amino-4-(3-boronopropyl)-1-(N-methylsulfamoyl)pyrrolidine-3-carboxylic acid, (1:1) 2,2,2-trifluoroacetic Acid Salt] | 1000 to 101000 |
| NC(=O)CNS(=O)(=O)N1C[C@H](CCCB(O)O)[C@](N)(C(=O)O)C1 (racemic) [Example 7, (rac)trans-3-amino-1-(N-(2-amino-2-oxoethyl)sulfamoyl)-4-(3-boronopropyl)pyrrolidine-3-carboxylic Acid, (1:1) 2,2,2-trifluoroacetic Acid Salt] | 1000 to 101000 |
| CC(C)C(NS(=O)(=O)N1CC(CCCB(O)O)C(N)(C(=O)O)C1)C(=O)O (racemic) [Example 11, (rac)trans-3-amino-4-(3-boronopropyl)-1-(N—((S)-1-carboxy-2-methylpropyl)sulfamoyl)pyrrolidine-3-carboxylic Acid (Diastereomer), (1:1) 2,2,2-trifluoroacetic Acid Salt] | 1000 to 101000 |
| CCOC(=O)[C@]1(N)CN(S(=O)(=O)NCCN)C[C@@H]1CCCB(O)O (racemic) [Example 14, (rac)(3-(trans-4-amino-1-(N-(2-aminoethyl)sulfamoyl)-4-(ethoxycarbonyl)pyrrolidin-3-yl)propyl)boronic Acid, (1:2) 2,2,2-trifluoroacetic Acid Salt] | 100 to 1000 |
| C[C@H](N)CNS(=O)(=O)N1C[C@H](CCCB(O)O)[C@](N)(C(=O)O)C1 (racemic) [Example 18, (rac)trans-3-amino-1-(N—((S)-2-aminopropyl)sulfamoyl)-4-(3-boronopropyl)pyrrolidine-3-carboxylic Acid (Diastereomers), 2,2,2-trifluoroacetic Acid Salt (1:2)] | 100 to 1000 |
| N[C@@H]1CCCCC1NS(=O)(=O)N1C[C@H](CCCB(O)O)[C@](N)(C(=O)O)C1 (mixture of isomers) [Example 20, (rac)trans-3-amino-1-(N-((rac)cis-2-aminocyclohexyl)sulfamoyl)-4-(3-boronopropyl)pyrrolidine-3-carboxylic Acid (Diastereomers), 2,2,2-trifluoroacetic Acid Salt (1:2)] | > 101000 |
